This assay addresses Cathepsin D (Oryctolagus cuniculus). As to the kind of experiment: Inhibition of rabbit liver cathepsin D at pH 4.0.

The record followed here is BindingDB's records for doi:10.1021/jm00398a022 (University of Wisconsin, 1988).

For orientation: Ki means a measure of affinity in units of concentration, obtained from inhibition or displacement. The molecule `COC(=O)[C@H](Cc1ccccc1)NC(=O)[C@H](CC(C)C)NC(=O)CC(O)[C@H](CC(C)C)NC(=O)[C@H](Cc1c[nH]cn1)NC(=O)COC(=O)C(C)(C)C` (stereo partly drawn) [POA-His-Sta-Leu-PheOMe] gave a Ki of 3.5 µM.
